Assay results reported in ChEMBL document CHEMBL1201862, “PubChem BioAssay data set” (2004).
Activity calls are given as the source filed them.

How the values were obtained:
[1] = human group III sPLA2 inhibitors, dose response, biochemical, QFRET, IC50 (AID 743457);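 further: green fluorescence rise as the enzyme cleaves BODIPY PC-A2 in liposomes; potency for inhibition of the enzyme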
[2] = target: Tyrosyl-DNA phosphodiesterase 2 (Homo sapiens, UniProt O95551); assay: human TDP2 enzyme inhibitors, dose response, biochemical, epi absorbance, IC50 (AID 743297)
[3] = target: T1, Rac GTPase-activating protein 1 (Homo sapiens, UniProt Q9H0H5); assay: MgcRacGAP GTPase-activating activity inhibitors, confirmation, biochemical, ADP Hunter fluorescence, primary and confirmatory (AID 624330); assay type: functional
T1 sequence (Q9H0H5 whole entry): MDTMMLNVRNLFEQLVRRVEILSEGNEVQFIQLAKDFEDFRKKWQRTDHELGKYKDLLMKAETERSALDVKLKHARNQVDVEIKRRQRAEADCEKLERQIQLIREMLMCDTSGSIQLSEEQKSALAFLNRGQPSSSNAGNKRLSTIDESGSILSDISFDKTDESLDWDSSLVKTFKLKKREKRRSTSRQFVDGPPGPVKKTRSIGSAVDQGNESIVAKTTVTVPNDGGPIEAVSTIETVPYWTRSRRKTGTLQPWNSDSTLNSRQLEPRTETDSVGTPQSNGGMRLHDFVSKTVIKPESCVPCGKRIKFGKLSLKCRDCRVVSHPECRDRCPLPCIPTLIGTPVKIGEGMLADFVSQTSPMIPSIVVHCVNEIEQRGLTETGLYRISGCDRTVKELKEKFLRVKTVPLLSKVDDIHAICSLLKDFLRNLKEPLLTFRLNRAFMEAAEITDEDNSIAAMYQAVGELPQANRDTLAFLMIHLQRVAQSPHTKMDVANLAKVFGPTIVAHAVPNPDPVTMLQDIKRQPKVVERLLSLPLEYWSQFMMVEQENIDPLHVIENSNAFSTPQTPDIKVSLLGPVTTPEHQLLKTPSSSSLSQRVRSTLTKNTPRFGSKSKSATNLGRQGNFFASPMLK

Fatty acid synthase [4] = target: T2, Fatty acid synthase (Homo sapiens, UniProt P49327); assay: FAS thioesterase domain inhibitors, dose response, biochemical, endpoint fluorescence intensity, uHTS hits (AID 624327); assay type: functional;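 further: fluorescence from hydrolysis of an O-methyl fluorescein acyl ester substrate by the enzyme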
T2 sequence (P49327 whole entry, the tested form may be a part): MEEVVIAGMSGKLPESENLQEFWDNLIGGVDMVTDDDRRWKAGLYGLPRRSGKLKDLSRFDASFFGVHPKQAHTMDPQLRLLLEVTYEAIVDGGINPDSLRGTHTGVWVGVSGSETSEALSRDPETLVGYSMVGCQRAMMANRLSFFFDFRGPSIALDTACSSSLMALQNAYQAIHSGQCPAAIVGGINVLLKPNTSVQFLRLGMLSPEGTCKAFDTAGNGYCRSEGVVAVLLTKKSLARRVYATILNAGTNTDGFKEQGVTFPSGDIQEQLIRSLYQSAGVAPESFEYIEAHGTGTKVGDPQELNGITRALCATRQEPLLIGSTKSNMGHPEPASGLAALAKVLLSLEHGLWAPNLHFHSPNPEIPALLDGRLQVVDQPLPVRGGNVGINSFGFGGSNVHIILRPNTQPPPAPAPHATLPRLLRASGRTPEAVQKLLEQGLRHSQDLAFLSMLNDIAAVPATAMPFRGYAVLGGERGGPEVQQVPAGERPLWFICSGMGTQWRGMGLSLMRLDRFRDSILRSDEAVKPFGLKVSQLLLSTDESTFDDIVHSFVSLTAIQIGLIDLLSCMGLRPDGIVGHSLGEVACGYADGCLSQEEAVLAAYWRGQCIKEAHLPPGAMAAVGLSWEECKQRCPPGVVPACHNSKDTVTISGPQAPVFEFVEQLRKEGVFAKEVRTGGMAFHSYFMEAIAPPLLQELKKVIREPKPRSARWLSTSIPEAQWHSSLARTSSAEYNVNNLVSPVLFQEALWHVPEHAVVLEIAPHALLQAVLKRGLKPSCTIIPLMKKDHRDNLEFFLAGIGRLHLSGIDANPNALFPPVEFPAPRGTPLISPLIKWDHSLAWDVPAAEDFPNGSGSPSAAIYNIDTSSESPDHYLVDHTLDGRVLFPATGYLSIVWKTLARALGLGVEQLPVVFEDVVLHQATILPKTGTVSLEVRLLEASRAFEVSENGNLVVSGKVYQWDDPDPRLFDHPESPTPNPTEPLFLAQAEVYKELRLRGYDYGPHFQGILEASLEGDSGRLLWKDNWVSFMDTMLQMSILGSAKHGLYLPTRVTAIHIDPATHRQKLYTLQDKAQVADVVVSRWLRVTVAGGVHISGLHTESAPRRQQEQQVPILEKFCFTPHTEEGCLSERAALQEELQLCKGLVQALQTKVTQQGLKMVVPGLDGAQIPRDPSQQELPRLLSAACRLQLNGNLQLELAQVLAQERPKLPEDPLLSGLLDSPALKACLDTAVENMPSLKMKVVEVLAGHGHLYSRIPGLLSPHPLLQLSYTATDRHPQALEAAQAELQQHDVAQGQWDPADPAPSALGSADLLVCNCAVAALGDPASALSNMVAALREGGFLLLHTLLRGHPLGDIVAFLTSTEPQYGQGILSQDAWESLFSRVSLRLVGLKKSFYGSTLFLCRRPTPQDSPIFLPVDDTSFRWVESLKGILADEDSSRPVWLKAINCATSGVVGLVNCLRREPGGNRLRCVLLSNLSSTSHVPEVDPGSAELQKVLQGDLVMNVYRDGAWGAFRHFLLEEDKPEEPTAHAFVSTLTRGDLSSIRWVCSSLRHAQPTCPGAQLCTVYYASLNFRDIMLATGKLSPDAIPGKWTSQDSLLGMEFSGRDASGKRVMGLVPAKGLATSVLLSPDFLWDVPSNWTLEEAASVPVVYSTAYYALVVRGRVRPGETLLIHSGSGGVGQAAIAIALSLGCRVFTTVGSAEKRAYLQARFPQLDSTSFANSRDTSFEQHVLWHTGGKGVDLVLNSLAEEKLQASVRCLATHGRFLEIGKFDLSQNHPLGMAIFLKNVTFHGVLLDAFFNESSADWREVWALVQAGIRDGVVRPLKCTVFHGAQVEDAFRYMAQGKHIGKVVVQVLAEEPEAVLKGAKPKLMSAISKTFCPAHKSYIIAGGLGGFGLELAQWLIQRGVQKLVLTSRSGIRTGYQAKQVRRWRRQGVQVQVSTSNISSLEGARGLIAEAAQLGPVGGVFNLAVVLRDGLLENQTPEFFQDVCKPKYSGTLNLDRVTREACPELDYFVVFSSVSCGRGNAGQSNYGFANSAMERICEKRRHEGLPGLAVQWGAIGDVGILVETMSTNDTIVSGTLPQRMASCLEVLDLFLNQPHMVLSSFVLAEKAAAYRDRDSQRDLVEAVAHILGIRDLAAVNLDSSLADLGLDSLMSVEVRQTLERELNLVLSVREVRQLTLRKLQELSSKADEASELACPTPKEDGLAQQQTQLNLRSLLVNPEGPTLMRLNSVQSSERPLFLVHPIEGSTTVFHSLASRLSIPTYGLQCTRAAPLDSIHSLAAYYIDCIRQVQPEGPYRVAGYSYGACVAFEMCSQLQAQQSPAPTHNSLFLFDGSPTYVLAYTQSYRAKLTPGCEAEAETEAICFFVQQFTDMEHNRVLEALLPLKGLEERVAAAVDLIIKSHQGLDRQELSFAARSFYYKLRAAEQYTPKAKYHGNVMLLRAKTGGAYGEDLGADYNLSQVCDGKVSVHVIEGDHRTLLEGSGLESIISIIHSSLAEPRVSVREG

Fatty acid synthase [5] = target: T2, Fatty acid synthase; assay: FAS thioesterase domain inhibitors, dose response, biochemical, kinetic fluorescence intensity (AID 624326); assay type: functional;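 further: rate of fluorescence rise from hydrolysis of a fluorogenic O-methyl fluorescein ester substrate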
Nonstructural protein 1 = Nonstructural protein 1 (Influenza A virus, UniProt Q194T2); assay type: functional, Influenza A virus (A/California/07/2009(H1N1))
Sequence of Nonstructural protein 1 (Q194T2 whole entry): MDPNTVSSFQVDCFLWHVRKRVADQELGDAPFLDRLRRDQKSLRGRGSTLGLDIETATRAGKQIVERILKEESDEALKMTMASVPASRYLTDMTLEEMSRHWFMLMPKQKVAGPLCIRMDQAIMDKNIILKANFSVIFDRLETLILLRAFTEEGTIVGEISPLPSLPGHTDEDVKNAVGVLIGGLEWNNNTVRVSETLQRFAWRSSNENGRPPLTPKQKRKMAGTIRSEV

[6] = HeLa cell cytotoxicity, dose response, cytotoxicity control for MgcRacGAP inhibitor project (AID 624300); assay type: functional
[7] = target: Fructose-bisphosphate aldolase (Mycobacterium tuberculosis, UniProt P9WQA3); assay: Fluorescence-based biochemical high throughput dose response assay for inhibitors of the fructose-bisphosphate aldolase (FBA) of M. tuberculosis.; assay type: functional
Sequence of Fructose-bisphosphate aldolase (P9WQA3 whole entry): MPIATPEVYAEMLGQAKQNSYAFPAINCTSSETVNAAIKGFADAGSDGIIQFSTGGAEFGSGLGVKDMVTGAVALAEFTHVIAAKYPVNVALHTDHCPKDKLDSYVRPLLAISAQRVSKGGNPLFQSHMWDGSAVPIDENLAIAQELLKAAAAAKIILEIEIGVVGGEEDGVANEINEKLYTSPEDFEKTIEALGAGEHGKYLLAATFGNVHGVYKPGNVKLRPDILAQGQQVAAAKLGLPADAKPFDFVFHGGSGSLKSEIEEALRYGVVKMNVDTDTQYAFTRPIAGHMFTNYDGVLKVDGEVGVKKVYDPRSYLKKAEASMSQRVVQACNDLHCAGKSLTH

Paired box protein Pax-8 = Paired box protein Pax-8 (Homo sapiens, UniProt Q06710); assay: inhibitors of PAX8-driven TPO luciferase reporter, dose response, RMG-I cells, cherry-pick (AID 687027); assay type: functional, cell-based;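 further: luciferase reporter driven by Pax8 target thyroperoxidase promoter measured by SteadyGlo luminescence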
Sequence of Paired box protein Pax-8 (Q06710 whole entry): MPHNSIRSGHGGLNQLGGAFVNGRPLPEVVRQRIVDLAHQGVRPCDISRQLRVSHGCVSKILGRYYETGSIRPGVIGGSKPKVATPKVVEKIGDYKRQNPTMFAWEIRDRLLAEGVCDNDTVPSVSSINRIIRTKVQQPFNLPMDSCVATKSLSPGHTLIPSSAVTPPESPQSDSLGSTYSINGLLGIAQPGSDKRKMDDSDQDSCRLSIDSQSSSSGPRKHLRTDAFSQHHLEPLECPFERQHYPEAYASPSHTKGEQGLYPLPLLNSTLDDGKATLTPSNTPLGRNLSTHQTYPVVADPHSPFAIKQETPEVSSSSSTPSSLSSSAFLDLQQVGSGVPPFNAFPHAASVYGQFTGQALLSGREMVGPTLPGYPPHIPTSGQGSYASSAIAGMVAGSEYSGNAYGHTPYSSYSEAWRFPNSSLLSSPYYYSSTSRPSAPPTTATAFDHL

[8] = IGROV1 ovarian cancer cell cytotoxicity, dose response, PAX8 inhibitor project, plate reader, dry powder samples (AID 743043); assay type: functional, cell-based; details: IGROV-1
[9] = cytotoxicity in OVCAR8 ovarian cancer cells, dose response, PAX8 project, cell-based, plate reader, dry powder samples (AID 743197); assay type: functional; details: OVCAR-8
[10] = NIH:OVCAR-3 ovarian cancer cell cytotoxicity, dose response, PAX8 inhibitor project, plate reader, dry powder samples (AID 743044); assay type: functional, cell-based
[11] = CellTiter-Glo luminescent dose response of DLD-1 viability loss (AID 1117352); assay type: functional
[12] = target: SWI/SNF-related matrix-associated actin-dependent regulator of chromatin subfamily A member 2 (Homo sapiens, UniProt P51531); assay: Luminescence-based cell-based high throughput dose response assay to identify activators of the function of SWI/SNF related, matrix associated, actin dependent regulator of chromatin, subfamily a, member 2 (SMARCA2, BRM).; assay type: functional
Sequence of SWI/SNF-related matrix-associated actin-dependent regulator of chromatin subfamily A member 2 (P51531 whole entry): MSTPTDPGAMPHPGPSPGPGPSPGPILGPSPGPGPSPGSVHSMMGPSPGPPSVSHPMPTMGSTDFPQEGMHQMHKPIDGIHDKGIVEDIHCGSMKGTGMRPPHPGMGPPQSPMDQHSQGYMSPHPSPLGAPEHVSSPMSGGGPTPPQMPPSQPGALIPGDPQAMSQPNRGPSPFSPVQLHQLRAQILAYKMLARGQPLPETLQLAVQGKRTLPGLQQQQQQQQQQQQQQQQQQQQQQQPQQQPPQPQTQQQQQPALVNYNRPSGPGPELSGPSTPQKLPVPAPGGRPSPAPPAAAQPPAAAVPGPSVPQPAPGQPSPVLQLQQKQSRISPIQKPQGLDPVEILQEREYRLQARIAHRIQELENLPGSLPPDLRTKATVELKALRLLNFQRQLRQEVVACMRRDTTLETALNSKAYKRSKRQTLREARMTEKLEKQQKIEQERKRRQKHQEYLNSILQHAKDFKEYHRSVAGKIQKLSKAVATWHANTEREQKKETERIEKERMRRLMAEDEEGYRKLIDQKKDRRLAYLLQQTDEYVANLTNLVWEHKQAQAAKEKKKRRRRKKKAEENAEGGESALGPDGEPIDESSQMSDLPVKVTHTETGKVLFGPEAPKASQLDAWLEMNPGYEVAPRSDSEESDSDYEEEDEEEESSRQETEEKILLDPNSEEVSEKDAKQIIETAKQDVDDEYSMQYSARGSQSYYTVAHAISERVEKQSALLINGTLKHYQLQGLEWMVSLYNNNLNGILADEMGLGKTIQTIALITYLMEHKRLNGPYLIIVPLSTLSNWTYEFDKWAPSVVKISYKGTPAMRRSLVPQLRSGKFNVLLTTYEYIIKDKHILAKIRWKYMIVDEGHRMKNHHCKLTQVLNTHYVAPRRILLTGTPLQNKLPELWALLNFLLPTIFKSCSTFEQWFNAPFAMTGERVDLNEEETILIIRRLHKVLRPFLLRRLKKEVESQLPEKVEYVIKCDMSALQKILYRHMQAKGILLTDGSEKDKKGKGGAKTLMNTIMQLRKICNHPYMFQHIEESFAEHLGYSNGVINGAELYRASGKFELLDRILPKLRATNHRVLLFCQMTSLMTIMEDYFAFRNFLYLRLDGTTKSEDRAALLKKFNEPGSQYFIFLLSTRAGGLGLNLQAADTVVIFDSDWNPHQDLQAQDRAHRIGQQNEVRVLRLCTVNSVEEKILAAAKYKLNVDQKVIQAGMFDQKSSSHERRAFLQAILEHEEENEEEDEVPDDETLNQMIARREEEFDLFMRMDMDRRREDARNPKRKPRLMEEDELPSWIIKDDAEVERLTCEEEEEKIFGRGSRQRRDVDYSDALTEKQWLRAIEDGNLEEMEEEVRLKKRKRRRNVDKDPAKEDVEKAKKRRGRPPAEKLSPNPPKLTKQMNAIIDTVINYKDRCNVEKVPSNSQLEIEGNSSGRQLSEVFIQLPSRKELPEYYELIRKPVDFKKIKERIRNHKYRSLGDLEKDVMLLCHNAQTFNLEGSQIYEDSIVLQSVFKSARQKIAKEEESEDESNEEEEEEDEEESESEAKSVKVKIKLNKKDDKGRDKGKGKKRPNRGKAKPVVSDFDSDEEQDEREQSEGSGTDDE

[13] = SNU-C1 cell viability reduction, dose response, CellTiter-Glo luminescence (AID 1117323); assay type: functional, cell-based
[14] = cytotoxicity toward HT-29 cells – cell-based, CellTiter-Glo luminescence, IC50, dose response (AID 1117330); assay type: functional
[15] = HepG2 cell cytotoxicity, dose response, cytotoxicity control for Shn3 inhibitor project, CellTiter-Glo, cherry-picked (AID 624134); assay type: functional, cell-based
[16] = HeLa 2N DNA content increase, dose response, cell-based, IC50 (AID 1117349); assay type: functional
[17] = Counterscreen for activators of the function of SWI/SNF related, matrix associated, actin dependent regulator of chromatin, subfamily a, member 2 (SMARCA2, BRM): Luminescence-based cell-based high throughput dose response assay to identify non-selective compounds using the VP16 reporter assay.; assay type: functional
[18] = Shn3 3'UTR reporter inhibitors, dose response, cell-based, Clone20 osteoblasts, firefly luciferase, cherry-picked (AID 624132); assay type: functional;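 further: firefly luciferase luminescence from reporter carrying the Shn3 3'UTR in osteoblasts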
[19] = HeLa 4N DNA content increase, dose response, cell-based, IC50 (AID 1117351); assay type: functional

CCOC(=O)c1cc2c(=Cc3ccc(N(C)C)cc3)c3ccccc3n2[n+]1C
active: IC50 [3] 42.5 µM | IC50 (Fatty acid synthase [4]) 12.9 µM | IC50 (Fatty acid synthase [5]) 8.42 µM | IC50 (Nonstructural protein 1) 12 µM | CC50 [6] 100 µM
inactive: IC50 [1] 36.1 µM | IC50 [2] > 128 µM

CN1CCN(C(=O)C2Cc3c(-c4ccc5c(c4)OCO5)ccnc3O2)CC1 (stereo not given)
active: IC50 [7] 1.73 µM

COc1ccc(S(=O)(=O)Nc2ccc3c(c2)C(=O)N([C@H](C)CO)C[C@@H](C)[C@H](CN(C)S(=O)(=O)c2ccc(Cl)cc2)OCCCC[C@H](C)O3)cc1
active: AC50 (Paired box protein Pax-8) 3.99 µM | AC50 [8] 34.6 µM | AC50 [10] 33.5 µM
inactive: AC50 [9] > 70 µM

C[C@H]1CCCCO[C@@H](CN(C)Cc2ccccc2)[C@@H](C)CN([C@@H](C)CO)C(=O)c2cc(NC(=O)Nc3ccc(C(F)(F)F)cc3)ccc2O1
active: AC50 (Paired box protein Pax-8) 11.6 µM | AC50 [8] 48.1 µM | AC50 [9] 42 µM | AC50 [10] 60.4 µM

CC(C)n1c(/C=C/[C@@H](O)C[C@@H](O)CC(=O)O)c(-c2ccc(F)cc2)c2ccccc21 [FLUVASTATIN SODIUM]
active: AC50 [18] 2.4 µM
inactive: IC50 [11] > 20 µM | EC50 [12] > 91.1 µM | IC50 [13] > 20 µM | IC50 [14] > 20 µM | AC50 [15] > 70 µM | IC50 [16] > 10 µM | EC50 [17] > 91.1 µM | IC50 [19] > 10 µM
